# Measurements reported in publication PMC6661766, “Antimicrobial, antioxidant and cytotoxic evaluation of diazenyl chalcones along with insights to mechanism of interaction by molecular docking studies” (BMC Chemistry, 2019).
# “And” between values parts separate entries of the source, which are not always exact repeats. Equal entries are not always repeated.
# Assays:
# [1] = system: HEK human embryonic kidney cells; experiment: MTT cytotoxicity assay, HEK; format: cell-based; details: 48 h
# Description: (§1) The cell lines employed in the investigation were purchased from the National Centre for Cell Sciences (NCCS), Pune, India. The cell lines were cultured in DMEM fortified with 10% FBS, L-glutamine, sodium bicarbonate, and solution of antibiotics (streptomycin 100 μg ml^−1 + penicillin-100 U ml^−1). The culture of cell lines was stored under 5% CO2 incubation at 37 °C.
# (§2) The compounds showing maximum activity (antimicrobial and antioxidant potential) were screened for cytotoxicity against A549 and HEK cell lines using MTT assay. Initially, 96-well microculture plate was seeded with 1 × 10^4 cells in 100 µl/well DMEM/MEM, supplemented with 10% FBS followed by incubation at a temperature of 37 °C for a period of 24 h under 5% CO2 atmosphere. After that, the test compounds and camptothecin were added to the cells to achieve a concentration of 10, 25, 50 and 100 µg. MTT reagent (10 µl) of concentration of 5 mg ml^−1 added to all the wells after the duration of 48 h. The plate was incubated further for 4 h followed by careful removal of supernatant from each well. To dissolve the formazan crystals, 100 µl of DMSO was added, and the ELISA reader was used to check the absorbance at 570 nm wavelength. In order to calculate the IC50 concentration, the following equation, i.e. A = Bx + C, was used. In this case, A = 50, while the values B and C values were obtained from the survival curve plot. This study was carried out in duplicate.
# C. albicans = experiment: Antimicrobial serial tube dilution, MIC and MFC; format: cell-based, Candida albicans MTCC 227; details: Candida albicans; for MIC: 48 h, read-out: C. albicans MIC; for MFC: read-out: C. albicans MFC
# Description: (§3) The synthesized diazenyl chalcones (C18 to C27) and controls (dyes A and E, and chalcone) were assessed for their antimicrobial activity by estimation of MIC and MBC/MFC values. […] The stock solutions of the test compounds and standard drugs having a concentration of 1000 µg ml^−1 were prepared by dissolving the used compounds in DMSO. The nutrient broth/Sabouraud dextrose broth was used for the serial dilution of the test compounds and referenced drugs for bacterial and fungal cultures, respectively. […] The size of the final inoculum in each test tube was taken as 5 × 10^5 CFU ml^−1. The incubation of the test and standard compounds of varying concentrations was done for 24 h at 37 ± 2 °C (bacterial culture) and for 48 h at 37 ± 2 °C (C. albicans) and for 7 d at 25 ± 2 °C (A. fumigatus). The diazenyl chalcones (C18–C27), were further evaluated for their bactericidal/fungicidal activity by estimation of MBC/MFC values. […] For proper mixing of culture media, the plates were shaken gently followed by incubation at the predefined temperature and time as stated earlier, followed by the visual inspection of the plates for signs of microbial growth.
# S. aureus = experiment: Antimicrobial serial tube dilution, MIC and MBC; format: cell-based, Staphylococcus aureus MTCC 2901; details: Staphylococcus aureus; for MIC: 24 h, read-out: S. aureus MIC; for MBC: read-out: S. aureus MBC
# Description: as §3
# [2] = system: A549 human lung cancer cell line; experiment: MTT cytotoxicity assay, A549; format: cell-based; details: for IC50: Homo sapiens, A549, MTT, 48 h
# Description: as §1, §2
# B. cereus = experiment: Antimicrobial serial tube dilution, MIC and MBC; format: cell-based, Bacillus cereus MTCC 1305; details: Bacillus cereus; for MIC: 24 h, read-out: B. cereus MIC; for MBC: read-out: B. cereus MBC
# Description: as §3
# A. fumigatus = experiment: Antimicrobial serial tube dilution, MIC and MFC; format: cell-based, Aspergillus fumigatus MTCC 2584; details: Aspergillus fumigatus; for MIC: 168 h, read-out: A. fumigatus MIC; for MFC: read-out: A. fumigatus MFC
# Description: as §3
# E. coli = experiment: Antimicrobial serial tube dilution, MIC and MBC; format: cell-based, Escherichia coli MTCC 1652; details: for MIC / MBC: Escherichia coli; for MIC: 24 h, read-out: E. coli MIC, 24 h at 37 ± 2 °C; for MBC: read-out: E. coli MBC; for E. coli MIC: 24 h at 37 ± 2 °C
# Description: as §3
# S. typhi = experiment: Antimicrobial serial tube dilution, MIC and MBC; format: cell-based, Salmonella typhi MTCC 3216; details: Salmonella enterica, TYPHI; for MIC: 24 h, read-out: S. typhi MIC; for MBC: read-out: S. typhi MBC
# Description: as §3
# B. subtilis = experiment: Antimicrobial serial tube dilution, MIC and MBC; format: cell-based, Bacillus subtilis MTCC 2063; details: Bacillus subtilis; for MIC: 24 h, read-out: B. subtilis MIC; for MBC: read-out: B. subtilis MBC
# Description: as §3
# [3] = DPPH scavenging antioxidant assay; details: for log IC50 DPPH: Fig. 1
# Description: The derivatives (C18–C27) were assessed for their antioxidant potential in the presence of the stable free radical DPPH using ascorbic acid as the standard compound [36, 37]. […] The total volume of 200 µl was used in each well for each concentration of the test and standard drug containing 0.004 µg DPPH. The assay was performed in triplicate at all concentrations of each sample and standard compound. DPPH solutions in methanol at the same concentration without test drugs were used as the control. Each concentration of the sample and standard has a different blank. To minimize evaporation, the plate was covered with the lid and wrapped in aluminium foil and kept in the dark place in order to protect the DPPH radical from degradation by light and left for 30 min. After 30 min of incubation, the plate was kept in ELISA reader to measure the absorbance values at 517 nm. The experiment was performed in triplicate. The antioxidant activity of each sample was then calculated as per cent inhibition of DPPH according to the following equation: %decolourationofDPPH=ControlAbs-SampleAbs×100/ControlAbs
SMILES,melting point,MIC (C. albicans),MFC (C. albicans),MIC (S. aureus),MBC (S. aureus),MIC (B. cereus),MBC (B. cereus),MIC (A. fumigatus),MFC (A. fumigatus),MIC (E. coli),MBC (E. coli),MIC (S. typhi),MBC (S. typhi),MIC (B. subtilis),MBC (B. subtilis),IC50 DPPH [3],% inhibition of DPPH ([3]; 1.56 µg ml^−1),% inhibition of DPPH ([3]; 3.12 µg ml^−1),% inhibition of DPPH ([3]; 6.25 µg ml^−1),% inhibition of DPPH ([3]; 12.5 µg ml^−1),further results
"O=C(/C=C\c1ccc(Cl)cc1Cl)c1cccc(N=Nc2cccc(Cl)c2Cl)c1O [Compound C-19, (2Z)-3-(2,4-Dichlorophenyl)-1-(3-((2,3-dichlorophenyl)diazenyl)-2-hydroxyphenyl)prop-2-en-1-one]",112 to 114 °C,125 µg/mL,125 µg/mL,125 µg/mL,125 µg/mL,500 µg/mL,500 µg/mL,125 µg/mL,250 µg/mL,500 µg/mL,500 µg/mL,125 µg/mL,125 µg/mL,15.6 µg/mL,62.5 µg/mL,> 100 µg/mL,6.64%,7.71%,9.39%,10.87%,IC50 [1]: 221 ± 3.23 µg/mL; IC50 [2]: 140.2 ± 1.11 µg/mL; % inhibition of DPPH ([3]; 25 µg ml^−1): 12.99%; % inhibition of DPPH ([3]; 50 µg ml^−1): 15.22%; % inhibition of DPPH ([3]; 100 µg ml^−1): 24.49%
"O=Cc1ccc(/C=C\C(=O)c2ccc(N=Nc3c(O)cccc3O)cc2)cc1 [Compound C-23, 4-((1Z)-3-(4-((2,6-Dihydroxyphenyl)diazenyl)phenyl)-3-oxoprop-1-en-1-yl)benzaldehyde]",182 to 184 °C,125 µg/mL,125 µg/mL,125 µg/mL,125 µg/mL,62.5 µg/mL,62.5 µg/mL,62.5 µg/mL,125 µg/mL,7.81 to 15.6 µg/mL,15.6 µg/mL,31.2 µg/mL,62.5 µg/mL,62.5 µg/mL,62.5 µg/mL,17.82 µg/mL,19.03%,25.53%,35.86%,50.45%,IC50 [1]: 190.1 ± 1.56 µg/mL; IC50 [2]: 171 ± 2.46 µg/mL; E. coli MIC (E. coli): 15.62 µg/mL; % inhibition of DPPH ([3]; 25 µg ml^−1): 70.53%; % inhibition of DPPH ([3]; 50 µg ml^−1): 83.17%; % inhibition of DPPH ([3]; 100 µg ml^−1): 95.68%; log IC50 DPPH [3]: 1.251
"O=Cc1ccc(/C=C\C(=O)c2cccc(N=Nc3cccc(Cl)c3Cl)c2O)cc1 [Compound C-25, 4-((1Z)-3-(3-((2,3-Dichlorophenyl)diazenyl)-2-hydroxyphenyl)-3-oxoprop-1-en-1-yl)benzaldehyde]",96 to 98 °C,31.2 µg/mL,62.5 µg/mL,62.5 µg/mL,62.5 µg/mL,125 µg/mL,125 µg/mL,62.5 µg/mL,62.5 µg/mL,62.5 µg/mL,125 µg/mL,125 µg/mL,125 µg/mL,15.6 µg/mL,62.5 µg/mL,> 100 µg/mL,9.71%,10.38%,11.36%,13.56%,"IC50 [1]: 270 ± 2.82 µg/mL; Morphological changes in A549 cell line ([2]; C-25 at 50 and 25 µg ml^−1, Fig. 2): reduced the number and clumping of A549 cells to a significant extent; IC50 [2]: 18 ± 1.34 µg/mL; Cytotoxicity against A549 cell line in words ([2]; compared with camptothecin): comparable cytotoxicity to camptothecin; % inhibition of DPPH ([3]; 25 µg ml^−1): 14.91%; % inhibition of DPPH ([3]; 50 µg ml^−1): 15.67%; % inhibition of DPPH ([3]; 100 µg ml^−1): 20.34%"
"COc1ccccc1/C=C\C(=O)c1ccc(N=Nc2c(O)cccc2O)cc1 [Compound C-27, (2Z)-1-(4-((2,6-Dihydroxyphenyl)diazenyl)phenyl)-3-(2-methoxyphenyl)prop-2-en-1-one]",320 to 322 °C,62.5 µg/mL,62.5 µg/mL,62.5 µg/mL,62.5 µg/mL,125 µg/mL,125 µg/mL,125 µg/mL,125 µg/mL,7.81 to 15.6 µg/mL,15.6 µg/mL,62.5 µg/mL,62.5 µg/mL,15.6 µg/mL,31.2 µg/mL,7.112 µg/mL and 7.12 µg/mL,26.13%,34.18%,54.67%,82.21%,IC50 [1]: 330.6 ± 2.9 µg/mL; IC50 [2]: 124 ± 2.56 µg/mL; E. coli MIC (E. coli): 7.81 µg/mL; % inhibition of DPPH ([3]; 25 µg ml^−1): 93.45%; % inhibition of DPPH ([3]; 50 µg ml^−1): 95.71%; % inhibition of DPPH ([3]; 100 µg ml^−1): 96.62%; log IC50 DPPH [3]: 0.8520
"CC(=O)c1ccc(O)c(N=Nc2cccc(Cl)c2Cl)c1 [Dye A, 1-(3-((2,3-Dichlorophenyl)diazenyl)-4-hydroxyphenyl)ethanone]",140 to 142 °C,62.5 µg/mL,62.5 µg/mL,125 µg/mL,125 µg/mL,31.2 µg/mL,31.2 µg/mL,125 µg/mL,125 µg/mL,15.6 µg/mL,31.2 µg/mL,62.5 µg/mL,62.5 µg/mL,125 µg/mL,125 µg/mL,> 100 µg/mL,4.65%,9.23%,11.97%,17.67%,% inhibition of DPPH ([3]; 25 µg ml^−1): 22.18%; % inhibition of DPPH ([3]; 50 µg ml^−1): 29.87%; % inhibition of DPPH ([3]; 100 µg ml^−1): 35.45%
"CC(=O)c1ccc(N=Nc2c(O)cccc2O)cc1 [Dye E, 1-(4-((2,6-Dihydroxyphenyl)diazenyl)phenyl)ethanone]",240 to 242 °C,125 µg/mL,125 µg/mL,31.2 µg/mL,62.5 µg/mL,62.5 µg/mL,62.5 µg/mL,125 µg/mL,125 µg/mL,31.2 µg/mL,31.2 µg/mL,125 µg/mL,125 µg/mL,62.5 µg/mL,125 µg/mL,69.40 µg/mL,7.89%,12.68%,19.80%,26.18%,% inhibition of DPPH ([3]; 25 µg ml^−1): 34.89%; % inhibition of DPPH ([3]; 50 µg ml^−1): 47.56%; % inhibition of DPPH ([3]; 100 µg ml^−1): 56.78%
